Experimental data: PubChem BioAssay (NCI)
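Exposure lasted 48 hours, with cells grown in 96-well plates and compounds tested at five concentrations. GI50 marks 50% less growth. TGI: concentration producing complete growth inhibition.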

Columns and labels:
Test in all cases: growth of human tumour cells (NCI), 48 h
786-0 renal = tested on: 786-0 renal
A498 renal = tested on: A498 renal
A549 NSCLC = tested on: A549 NSCLC
ACHN renal = tested on: ACHN renal
BT-549 breast = tested on: BT-549 breast
CAKI-1 renal = tested on: CAKI-1 renal
CCRF-CEM leukemia = tested on: CCRF-CEM leukemia
COLO 205 colon = tested on: COLO 205 colon
DU-145 prostate = tested on: DU-145 prostate
EKVX NSCLC = tested on: EKVX NSCLC
HCC-2998 colon = tested on: HCC-2998 colon
HCT-116 colon = tested on: HCT-116 colon
HCT-15 colon = tested on: HCT-15 colon
HL-60(TB) leukemia = tested on: HL-60(TB) leukemia
HOP-62 NSCLC = tested on: HOP-62 NSCLC
HOP-92 NSCLC = tested on: HOP-92 NSCLC
HS 578T breast = tested on: HS 578T breast
HT29 colon = tested on: HT29 colon
IGROV1 ovarian = tested on: IGROV1 ovarian
K-562 leukemia = tested on: K-562 leukemia
KM12 colon = tested on: KM12 colon
LOX IMVI melanoma = tested on: LOX IMVI melanoma
M14 melanoma = tested on: M14 melanoma
MALME-3M melanoma = tested on: MALME-3M melanoma
MCF7 breast = tested on: MCF7 breast
MDA-MB-231 breast = tested on: MDA-MB-231 breast
MDA-MB-435 = tested on: MDA-MB-435
MOLT-4 leukemia = tested on: MOLT-4 leukemia
NCI-H226 lung = tested on: NCI-H226 lung
NCI-H23 lung = tested on: NCI-H23 lung
NCI-H460 lung = tested on: NCI-H460 lung
NCI-H522 lung = tested on: NCI-H522 lung
NCI/ADR-RES ovarian = tested on: NCI/ADR-RES ovarian
OVCAR-3 ovarian = tested on: OVCAR-3 ovarian
OVCAR-4 ovarian = tested on: OVCAR-4 ovarian
OVCAR-5 ovarian = tested on: OVCAR-5 ovarian
OVCAR-8 ovarian = tested on: OVCAR-8 ovarian
PC-3 prostate = tested on: PC-3 prostate
RPMI-8226 leukemia = tested on: RPMI-8226 leukemia
RXF 393 renal = tested on: RXF 393 renal
SF-268 CNS = tested on: SF-268 CNS
SF-295 CNS = tested on: SF-295 CNS
SF-539 CNS = tested on: SF-539 CNS
SK-MEL-2 melanoma = tested on: SK-MEL-2 melanoma
SK-MEL-28 melanoma = tested on: SK-MEL-28 melanoma
SK-MEL-5 melanoma = tested on: SK-MEL-5 melanoma
SK-OV-3 ovarian = tested on: SK-OV-3 ovarian
SN12C renal = tested on: SN12C renal
SNB-19 CNS = tested on: SNB-19 CNS
SNB-75 CNS = tested on: SNB-75 CNS
SR leukemia = tested on: SR leukemia
SW-620 colon = tested on: SW-620 colon
T-47D breast = tested on: T-47D breast
TK-10 renal = tested on: TK-10 renal
U251 CNS = tested on: U251 CNS
UACC-62 melanoma = tested on: UACC-62 melanoma
UO-31 renal = tested on: UO-31 renal

Compound: CCOC(=O)c1c(C)nc2c(c1N)/C(=C/c1ccc(OC)cc1)C(=O)N2Cc1ccc(F)cc1
- GI50 (786-0 renal): 165 nM
- TGI (786-0 renal): 389 nM
- GI50 (A498 renal): 535 nM
- TGI (A498 renal): 2600 nM
- GI50 (A549 NSCLC): 385 nM
- TGI (A549 NSCLC): 2390 nM
- GI50 (ACHN renal): 137 nM
- TGI (ACHN renal): 529 nM
- GI50 (BT-549 breast): 169 nM
- TGI (BT-549 breast): 365 nM
- GI50 (CAKI-1 renal): 250 nM
- TGI (CAKI-1 renal): 1310 nM
- GI50 (CCRF-CEM leukemia): 109 nM
- TGI (CCRF-CEM leukemia): 514 nM
- GI50 (COLO 205 colon): 146 nM
- TGI (COLO 205 colon): 333 nM
- GI50 (DU-145 prostate): 279 nM
- TGI (DU-145 prostate): 1120 nM
- GI50 (EKVX NSCLC): 270 nM
- TGI (EKVX NSCLC): 2260 nM
- GI50 (HCC-2998 colon): 255 nM
- TGI (HCC-2998 colon): 762 nM
- GI50 (HCT-116 colon): 134 nM
- TGI (HCT-116 colon): 360 nM
- GI50 (HCT-15 colon): 127 nM
- TGI (HCT-15 colon): 543 nM
- GI50 (HL-60(TB) leukemia): 140 nM
- TGI (HL-60(TB) leukemia): 474 nM
- GI50 (HOP-62 NSCLC): 497 nM
- TGI (HOP-62 NSCLC): 2170 nM
- GI50 (HOP-92 NSCLC): 263 nM
- TGI (HOP-92 NSCLC): 859 nM
- GI50 (HS 578T breast): 479 nM
- TGI (HS 578T breast): > 100 µM
- GI50 (HT29 colon): 171 nM
- TGI (HT29 colon): 587 nM
- GI50 (IGROV1 ovarian): 235 nM
- TGI (IGROV1 ovarian): 733 nM
- GI50 (K-562 leukemia): 207 nM
- TGI (K-562 leukemia): 1010 nM
- GI50 (KM12 colon): 243 nM
- TGI (KM12 colon): 844 nM
- GI50 (LOX IMVI melanoma): 164 nM
- TGI (LOX IMVI melanoma): 340 nM
- GI50 (M14 melanoma): 191 nM
- TGI (M14 melanoma): 443 nM
- GI50 (MALME-3M melanoma): 185 nM
- TGI (MALME-3M melanoma): 440 nM
- GI50 (MCF7 breast): 195 nM
- TGI (MCF7 breast): 1510 nM
- GI50 (MDA-MB-231 breast): 236 nM
- TGI (MDA-MB-231 breast): 760 nM
- GI50 (MDA-MB-435): 201 nM
- TGI (MDA-MB-435): 469 nM
- GI50 (MOLT-4 leukemia): 221 nM
- TGI (MOLT-4 leukemia): 745 nM
- GI50 (NCI-H226 lung): 261 nM
- TGI (NCI-H226 lung): 1030 nM
- GI50 (NCI-H23 lung): 262 nM
- TGI (NCI-H23 lung): 1030 nM
- GI50 (NCI-H460 lung): 257 nM
- TGI (NCI-H460 lung): 744 nM
- GI50 (NCI-H522 lung): 125 nM
- TGI (NCI-H522 lung): 296 nM
- GI50 (NCI/ADR-RES ovarian): 299 nM
- GI50 (OVCAR-3 ovarian): 109 nM
- TGI (OVCAR-3 ovarian): 510 nM
- GI50 (OVCAR-4 ovarian): 392 nM
- TGI (OVCAR-4 ovarian): 6.25 µM
- GI50 (OVCAR-5 ovarian): 246 nM
- TGI (OVCAR-5 ovarian): 561 nM
- GI50 (OVCAR-8 ovarian): 257 nM
- TGI (OVCAR-8 ovarian): 1060 nM
- GI50 (PC-3 prostate): 277 nM
- TGI (PC-3 prostate): 1000 nM
- GI50 (RPMI-8226 leukemia): 224 nM
- TGI (RPMI-8226 leukemia): 653 nM
- GI50 (RXF 393 renal): 140 nM
- TGI (RXF 393 renal): 329 nM
- GI50 (SF-268 CNS): 285 nM
- TGI (SF-268 CNS): 1210 nM
- GI50 (SF-295 CNS): 1370 nM
- TGI (SF-295 CNS): 3.59 µM
- GI50 (SF-539 CNS): 189 nM
- TGI (SF-539 CNS): 457 nM
- GI50 (SK-MEL-2 melanoma): 238 nM
- TGI (SK-MEL-2 melanoma): 729 nM
- GI50 (SK-MEL-28 melanoma): 183 nM
- TGI (SK-MEL-28 melanoma): 374 nM
- GI50 (SK-MEL-5 melanoma): 333 nM
- TGI (SK-MEL-5 melanoma): 1480 nM
- GI50 (SK-OV-3 ovarian): 692 nM
- TGI (SK-OV-3 ovarian): 6.85 µM
- GI50 (SN12C renal): 244 nM
- TGI (SN12C renal): 750 nM
- GI50 (SNB-19 CNS): 532 nM
- TGI (SNB-19 CNS): 1870 nM
- GI50 (SNB-75 CNS): 1030 nM
- TGI (SNB-75 CNS): 4.83 µM
- GI50 (SR leukemia): 81.6 nM
- TGI (SR leukemia): 726 nM
- GI50 (SW-620 colon): 140 nM
- TGI (SW-620 colon): 349 nM
- GI50 (T-47D breast): 148 nM
- TGI (T-47D breast): 1910 nM
- GI50 (TK-10 renal): 264 nM
- TGI (TK-10 renal): 1000 nM
- GI50 (U251 CNS): 197 nM
- TGI (U251 CNS): 508 nM
- GI50 (UACC-62 melanoma): 160 nM
- TGI (UACC-62 melanoma): 317 nM
- GI50 (UO-31 renal): 132 nM
- TGI (UO-31 renal): 301 nM
